Test results taken from patent publication US9943504B2, “Arginine methyltransferase inhibitors and uses thereof” (Epizyme, Inc., priority 2013, dated 2018).

System: mono-methyl arginine in RKO cells
Experiment: RKO Methylation Assay (In Cell Western)
Format: cell-based
Conditions: 72 hours, percent activation
From the text: RKO adherent cells were purchased from ATCC (American Type Culture Collection), Manassas, Va., USA. DMEM/Glutamax medium, penicillin-streptomycin, heat inactivated fetal bovine serum, 0.05% trypsin and D-PBS were purchased from Life Technologies, Grand Island, N.Y., USA. Odyssey blocking buffer, 800CW goat anti-rabbit IgG (H+L) antibody, and Licor Odyssey infrared scanner were purchased from Licor Biosciences, Lincoln, Nebr., USA. Mono-methyl arginine antibody was purchased from Cell Signaling Technology, Danvers, Mass., USA. Methanol was purchased from VWR, Franklin, Mass., USA. 10% Tween 20 was purchased from KPL, Inc., Gaithersburg, Md., USA. DRAQ5 was purchased from Biostatus Limited, Leicestershire, UK.
RKO adherent cells were maintained in growth medium (DMEM/Glutamax medium supplemented with 10% v/v heat inactivated fetal bovine serum and 100 units/mL penicillin-streptomycin) and cultured at 37° C. under 5% CO2.
Cell Treatment, in Cell Western (ICW) for Detection of Mono-Methyl Arginine and DNA Content.
RKO cells were seeded in assay medium at a concentration of 20,000 cells per mL to a poly-D-lysine coated 384 well culture plate (BD Biosciences 356697) with 50 μL per well. Compound (100 nL) from a 96-well source plate was added directly to 384 well cell plate. Plates were incubated at 37° C., 5% CO2 for 72 hours. After three days of incubation, plates were brought to room temperature outside of the incubator for ten minutes and blotted on paper towels to remove cell media. 50 μL of ice cold 100% methanol was added directly to each well and incubated for 30 min at room temperature. After 30 min, plates were transferred to a Biotek EL406 plate washer and washed 2 times with 100 μL per well of wash buffer (1×PBS). Next 60 μL per well of Odyssey blocking buffer (Odyssey Buffer with 0.1% Tween 20 (v/v)) were added to each plate and incubated 1 hour at room temperature. Blocking buffer was removed and 20 μL per well of primary antibody was added (mono-methyl arginine diluted 1:200 in Odyssey buffer with 0.1% Tween 20 (v/v)) and plates were incubated overnight (16 hours) at 4° C. Plates were washed 5 times with 100 μL per well of wash buffer. Next 20 μL per well of secondary antibody was added (1:200 800CW goat anti-rabbit IgG (H+L) antibody, 1:1000 DRAQ5 (Biostatus limited) in Odyssey buffer with 0.1% Tween 20 (v/v)) and incubated for 1 hour at room temperature. The plates were washed 5 times with 100 μL per well wash buffer then 2 times with 100 μL per well of water. Plates were allowed to dry at room temperature then imaged on the Licor Odyssey machine which measures integrated intensity at 700 nm and 800 nm wavelengths. Both 700 and 800 channels were scanned.
First, the ratio for each well was determined by:
Each plate included fourteen control wells of DMSO only treatment (minimum activation) as well as fourteen control wells for maximum activation treated with 20 μM of a reference compound. The average of the ratio values for each control type was calculated and used to determine the percent activation for each test well in the plate. Reference compound was serially diluted three-fold in DMSO for a total of nine test concentrations, beginning at 20 μM. Percent activation was determined and EC30 curves were generated using triplicate wells per concentration of compound.

Q: `CC(C)COc1ccc2[nH]nc(CN(C)CCN)c2c1` [Compound 2, N^1-((5-iso-butoxy-1H-indazol-3-yl)methyl)-N^1-methylethane-1,2-diamine] was tested. Which “RGG ICW EC30” value did it give?
A: B (“B” indicates an EC30 of 3.01-12.00 μM)

Q: Which “RGG ICW EC30” value does the source give for `CNCCN(C)Cc1nn(C)c2ccc(OCC(C)C)cc12` [Compound 3, N^1-((5-iso-butoxy-1-methyl-1H-indazol-3-yl)methyl)-N^1,N^2-dimethylethane-1,2-diamine] here?
A: C (“C” indicates an EC30 ≥ 12.01 μM)

Q: How did the “RGG ICW EC30” value turn out when `CNCCN(C)Cc1n[nH]c2ccc(OC(C)C(C)C)cc12` (centres unmarked) [Compound 4] was run?
A: A (“A” indicates an EC30 ≤ 3.00 μM)

Q: `CNCCN(C)Cc1n[nH]c2ccc(OCCOC)cc12` [Compound 5, N^1-((5-(2-methoxyethoxy)-1H-indazol-3-yl)methyl)-N^1,N^2-dimethylethane-1,2-diamine] was tested. Which “RGG ICW EC30” value did it give?
A: B (“B” indicates an EC30 of 3.01-12.00 μM)

Q: Which “RGG ICW EC30” value does the source give for `CNCCN(C)Cc1n[nH]c2ccc(OCCCOC)cc12` [Compound 6] here?
A: A (“A” indicates an EC30 ≤ 3.00 μM)

Q: With `CNCCN(C)Cc1n[nH]c2ccc(OCCc3ccccc3)cc12` [Compound 7] as the molecule, how does the “RGG ICW EC30” value read?
A: A (“A” indicates an EC30 ≤ 3.00 μM)

Q: For `CNCCN(C)Cc1n[nH]c2ccc(OCCC(C)C)cc12` [Compound 8], which “RGG ICW EC30” value is on record?
A: A (“A” indicates an EC30 ≤ 3.00 μM)

Q: For `CNCCN(C)Cc1n[nH]c2ccc(OC(C)Cc3ccccc3)cc12` (centres unmarked) [Compound 9], which “RGG ICW EC30” value is on record?
A: B (“B” indicates an EC30 of 3.01-12.00 μM)

Q: How did the “RGG ICW EC30” value turn out when `CNCCN(C)Cc1n[nH]c2ccc(Oc3ccccc3)cc12` [Compound 10, N^1,N^2-dimethyl-N^1-((5-phenoxy-1H-indazol-3-yl)methyl)ethane-1,2-diamine] was run?
A: B (“B” indicates an EC30 of 3.01-12.00 μM)

Q: Which “RGG ICW EC30” value does the source give for `CNCCN(C)Cc1n[nH]c2ccc(OC3CCCC3)cc12` [Compound 11] here?
A: A (“A” indicates an EC30 ≤ 3.00 μM)

Q: For `CNCCN(C)Cc1n[nH]c2ccc(OCc3ccccn3)cc12` [Compound 12], which “RGG ICW EC30” value is on record?
A: B (“B” indicates an EC30 of 3.01-12.00 μM)

Q: How did the “RGG ICW EC30” value turn out when `CNCCN(C)Cc1n[nH]c2ccc(OCc3ccc(C#N)cc3)cc12` [Compound 13] was run?
A: B (“B” indicates an EC30 of 3.01-12.00 μM)

Q: How did the “RGG ICW EC30” value turn out when `CNCCN(C)Cc1n[nH]c2ccc(OCc3cccc(C#N)c3)cc12` [Compound 14] was run?
A: B (“B” indicates an EC30 of 3.01-12.00 μM)

Q: How did the “RGG ICW EC30” value turn out when `CNCCN(C)Cc1n[nH]c2ccc(OCc3cc[nH]n3)cc12` [Compound 17] was run?
A: C (“C” indicates an EC30 ≥ 12.01 μM)
